Reference: patent US9708259B2 (Hoffmann-La Roche Inc., priority 2013, dated 2017)
Changes are numbered by the printed parent chain. Where two headings read alike, the source gives them in different places.

Assays:
human M1 = biological target: T1, human M1 (Homo sapiens, UniProt P11229); test: M1 PAM assay (FLIPR intracellular calcium), human M1; type: cell-based
T1 construct: expressed in transfected cells; host or cells: CHO cells
T1 sequence (P11229 1-460): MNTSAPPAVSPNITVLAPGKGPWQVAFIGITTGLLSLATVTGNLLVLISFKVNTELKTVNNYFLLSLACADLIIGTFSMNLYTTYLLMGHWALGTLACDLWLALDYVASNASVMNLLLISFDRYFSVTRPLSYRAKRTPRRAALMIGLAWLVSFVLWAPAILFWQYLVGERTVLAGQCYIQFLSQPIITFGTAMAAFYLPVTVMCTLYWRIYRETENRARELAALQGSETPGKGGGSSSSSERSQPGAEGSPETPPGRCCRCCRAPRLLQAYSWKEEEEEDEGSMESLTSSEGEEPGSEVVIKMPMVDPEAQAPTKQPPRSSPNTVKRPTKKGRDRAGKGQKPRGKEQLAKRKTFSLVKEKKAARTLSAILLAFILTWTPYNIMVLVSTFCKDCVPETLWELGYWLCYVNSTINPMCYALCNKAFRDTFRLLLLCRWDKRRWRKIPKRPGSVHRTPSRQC
Procedure, shortened: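 CHO cells expressing M1, Fluo-4AM-loaded, in HEPES/probenecid HBSS pH 7.4, 1% DMSO final. Compounds pre-incubated 2 min for agonist activity versus 30 nM acetylcholine control. For PAM activity, acetylcholine EC20 added after the 2 min pre-incubation, then 2 min more before FLIPR intracellular Ca2+ read.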

ratM1 = biological target: T2, ratM1 (Rattus norvegicus, UniProt P08482); test: M1 PAM assay (FLIPR intracellular calcium), rat M1; type: cell-based
T2 construct: expressed in transfected cells; host or cells: CHO cells (stated generally for the assay, not specifically for rat M1)
T2 sequence (P08482 1-460): T1 sequence (P11229 1-460) with A5V, T254S, P309S, R320K, A337G, I413V

[1] = CHO human M1 cells, FLIPR Ca2+, with EC20 of acetylcholine, first value of the cell, read-out: hM1 EC50
[2] = rat M1, FLIPR Ca2+, second value of the cell, read-out: ratM1 EC50

Compound	EC50 (human M1) [µM]	EC50 (ratM1) [µM]	EC50 (human M1; [1]) [µM]	EC50 (ratM1; [2]) [µM]
O=C(N[C@H]1CCCC[C@@H]1O)c1cn(Cc2ccc(Cl)cc2)c2cccc(F)c12 [Example 38, 1-(4-chlorobenzyl)-4-fluoro-N-((1S,2S)-2-hydroxycyclohexyl)-1H-indole-3-carboxamide]	0.131	0.382		
COc1ccc(F)c2c(C(=O)NC3CCOCC3)cn(Cc3ccc(-c4cnn(C)c4)cc3)c12 [Example 151, 4-fluoro-7-methoxy-1-(4-(1-methyl-1H-pyrazol-4-yl)benzyl)-N-(tetrahydro-2H-pyran-4-yl)-1H-indole-3-carboxamide]			0.194	0.299
NC(=O)c1ccc(Cn2cc(C(=O)N[C@H]3CCOC[C@@H]3O)c3c(F)cccc32)cc1 (racemic) [Example 15, 1-(4-carbamoylbenzyl)-4-fluoro-N-((3RS,4SR)-3-hydroxytetrahydro-2H-pyran-4-yl)-1H-indole-3-carboxamide]			0.0124	0.00961
CNC(=O)c1ccc(Cn2cc(C(=O)NC3CC3)c3c(F)cccc32)cc1 [Example 111, N-cyclopropyl-4-fluoro-1-[[4-(methylcarbamoyl)phenyl]methyl]indol-3-carboxamide]			0.127	0.408
NC(=O)c1ccc(Cn2cc(C(=O)N[C@H]3CCCC[C@@H]3O)c3c(F)cccc32)cc1 [Example 77, 1-(4-carbamoylbenzyl)-4-fluoro-N-((1S,2S)-2-hydroxycyclohexyl)-1H-indole-3-carboxamide]			0.00221	0.00247
O=C(N[C@H]1CCCC[C@@H]1O)c1cn(Cc2ccc(N3CCCC3)cc2)c2cccc(F)c12 [Example 161, 4-fluoro-N-((1S,2S)-2-hydroxycyclohexyl)-1-(4-(pyrrolidin-1-yl)benzyl)-1H-indole-3-carboxamide]			0.121	0.307
Cn1cc(-c2ccc(Cn3nc(C(=O)N[C@H]4CCOC[C@@H]4O)c4c(F)ccc(F)c43)c(F)c2)cn1 [Example 73, 4,7-difluoro-1-(2-fluoro-4-(1-methyl-1H-pyrazol-4-yl)benzyl)-N-((3R,4S)-3-hydroxytetrahydro-2H-pyran-4-yl)-1H-indazole-3-carboxamide]			0.0658	0.0943
CNC(=O)c1ccc(Cn2cc(C(=O)NC3CCC3)c3c(F)cccc32)cc1 [Example 112, N-cyclobutyl-4-fluoro-1-[[4-(methylcarbamoyl)phenyl]methyl]indole-3-carboxamide]			0.072	0.168
CNC(=O)c1ccc(Cn2cc(C(=O)NC3CCCCC3)c3c(F)cccc32)cc1 [Example 114, N-cyclohexyl-4-fluoro-1-[[4-(methylcarbamoyl)phenyl]methyl]indole-3-carboxamide]			0.017	0.015
CNC(=O)c1ccc(Cn2cc(C(=O)NC3CCOCC3C)c3c(F)cccc32)cc1 (centres unmarked) [Example 126, 4-fluoro-1-[[4-(methylcarbamoyl)phenyl]methyl]-N-(3-methyloxan-4-yl)indole-3-carboxamide]			0.019	0.051
Cn1cc(-c2ccc(Cn3cc(C(=O)N[C@H]4CCCC[C@@H]4O)c4c(F)cccc43)cn2)cn1 [Example 30, 4-fluoro-N-((1S,2S)-2-hydroxycyclohexyl)-1-((6-(1-methyl-1H-pyrazol-4-yl)pyridine-3-yl)methyl)-1H-indole-3-carboxamide]			0.0132	0.0141
COc1ccc(F)c2c(C(=O)N[C@H]3CCCC[C@@H]3O)cn(Cc3ccc(-c4cnn(C)c4)cc3F)c12 [Example 149, 4-fluoro-1-(2-fluoro-4-(1-methyl-1H-pyrazol-4-yl)benzyl)-N-((1S,2S)-2-hydroxycyclohexyl)-7-methoxy-1H-indole-3-carboxamide]			0.438	0.348
CCc1ccc(F)c2c(C(=O)NC3CCOCC3)cn(Cc3ccc(-c4cnn(C)c4)cc3)c12 [Example 108, 7-ethyl-4-fluoro-1-(4-(1-methyl-1H-pyrazol-4-yl)benzyl)-N-(tetrahydro-2H-pyran-4-yl)-1H-indole-3-carboxamide]			0.414	0.952
